The results in this text go back to ChEMBL document CHEMBL1129806, “Diastereoselective synthesis of trans-2-(1-triphenylmethyl-1H-imidazol-4-yl)cyclopropanecarboxylic acids: key intermediates for the preparation of potent and chiral histamine H3 receptor agents” (Bioorg Med Chem Lett, 1997).

The target in this test is Histamine H3 receptor (Rattus norvegicus, UniProt Q9QYN8). The test can be described thus: Histamine H3 receptor affinity of compound was determined in rat cortical membranes using the H3 selective agonist ligand, [3H]N-alpha-methylhistamine. The test is classed as cell membranes, Membrane.
Histamine H3 receptor, sequence (Q9QYN8 whole entry): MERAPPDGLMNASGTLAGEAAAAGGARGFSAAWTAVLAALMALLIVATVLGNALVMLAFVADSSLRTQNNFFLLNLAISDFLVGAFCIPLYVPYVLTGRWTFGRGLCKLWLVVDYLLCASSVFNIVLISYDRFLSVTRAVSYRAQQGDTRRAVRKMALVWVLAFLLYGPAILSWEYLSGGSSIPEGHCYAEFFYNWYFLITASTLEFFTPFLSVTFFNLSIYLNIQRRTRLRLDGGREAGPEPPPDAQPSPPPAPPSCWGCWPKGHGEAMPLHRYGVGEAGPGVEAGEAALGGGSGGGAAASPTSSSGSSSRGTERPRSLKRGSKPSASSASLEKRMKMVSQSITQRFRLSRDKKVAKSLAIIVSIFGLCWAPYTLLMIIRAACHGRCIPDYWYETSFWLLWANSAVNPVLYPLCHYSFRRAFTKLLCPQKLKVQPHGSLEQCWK

What is called Ki is a dissociation constant, usually derived from enzyme kinetics or from competition with a known ligand. A higher Ki goes with lower affinity. In turn, `Ic1ccc(COCCCc2c[nH]cn2)cc1` [IODOPROXYFAN] returned a Ki of 0.3 nM.
